Data taken from patent US20100113368A1, “CHOLESTEROL LOWERING PROTEIN HYDROLYSATES” (priority 2007, published 2010).
Marks after values point to notes of the source that are not given here.

Experiments:
[1] = tested on: hypercholesterolemic rat model; experiment: Hypocholesterolemic effects of R-P-P-R, K-P-P, L-arginine and Ezetimib in Fisher F344 rats (Example 6); type: in vivo; conditions: for Effect on non-HDL cholesterol (VLDL-cholesterol+LDL-cholesterol) as compared to the control group / Effect on plasma HDL-cholesterol as compared to the control group / Effect on plasma total cholesterol as compared to the control group: in words, 8 days orally, 100 mg/kg BW (Ezetimib 1 mg/kg BW); for HDL cholesterol (plasma) / Total cholesterol (plasma) / non HDL cholesterol (plasma): male F344 rats on atherogenic diet, orally for 8 days, peptides and L-arginine 100 mg/kg BW, Ezetimib 1 mg/kg BW, mean ± SD; for non HDL cholesterol (plasma): difference between total and HDL cholesterol
Experimental: In this experiment the effects of the chemically synthesized peptides R-P-P-R and K-P-P, the free amino acid L-arginine and the potent and selective cholesterol absorption inhibitor Ezetimib (Ezetrol, MSD Germany) were tested on plasma cholesterol levels in the hypercholesterolemic rat model.
Male Fisher rats (F344) from Charles River (Sulzfeld, Germany), weighing 65-96 g were housed individually with free access to water and feed, with an alternating 12-hour light-dark cycle. The animals were fed a rodent atherogenic diet high in cholesterol and fat similar to the procedure described in Example 5. After 2 weeks of adaptation to the diet the rats were randomized according to body weight into five experimental groups of 10 animals each. The five groups were treated orally every morning for 8 days with either water (control group) or with R-P-P-R, K-P-P and L-arginine at a dose of 100 mg/kg body weight (BW) or with Ezetimib at a dose of 1 mg/kg BW while continuing the aetherogenic diet. There was no difference in feed consumption over the whole experiment. The day before the last administration, all animals were dosed orally in the evening and deprived of food for the last 6 hours but allowed free access to water. At day 8 the fasted rats were treated again orally in the morning and after two hours the animals were sacrificed by withdrawing blood from the vena Cava under Isoflurane anesthesia. Blood was collected into tubes containing EDTA as an anticoagulant. Plasma was prepared from the blood by immediate centrifugation at 1600 g for 10 minutes at 4° C. Assays of plasma cholesterol and HDL-cholesterol (precipitation method) were determined enzymatically on a Hitachi 912 automatic analyzer (Roche Diagnostica, Switzerland). Non-HDL cholesterol was calculated by difference between total cholesterol and HDL cholesterol. All data are expressed as means±standard deviation (SD) for animals in each diet group, with n being the number of rats.

[2] = tested on: hypercholesterolemic rat model; experiment: Hypocholesterolemic effects of peptide R-P-P-R-S in Fisher F344 rats (Example 5); type: in vivo; conditions: male F344 rats on atherogenic diet, 100 mg/kg BW orally for 7 days, mean ± SD
Experimental: In this experiment the effects of the chemically synthesized […] R-P-P-R-S was tested on plasma cholesterol levels in the hypercholesterolemic rat model.
In short male Fisher rats (F344) from Charles River (Sulzfeld, Germany), weighing 65-96 g were housed individually with free access to water and feed, with an alternating 12-hour light-dark cycle. The animals were fed a rodent atherogenic diet high in cholesterol and fat for the 2 weeks preceding the treatment. The macro-nutrient composition of the diet was as follows (g/100 g anhydrous mix): protein 20.8; fiber 4.2; fat 15; carbohydrate 48. The diet also contained 1.25 wt % cholesterol, 0.5 wt % sodium cholate and a standard vitamin and mineral mix, prepared according to rat nutritional requirements. The main fats consisted of cacoa butter (7.5 wt %) and soja oil (4.35 wt %). After 2 weeks of adaptation to the diet the rats were randomized according to body weight into two experimental groups of 10 animals. The two groups were treated orally every morning for 7 days with either water (control group) or peptide R-P-P-R-S, at a dose of 100 mg/kg body weight (BW) while continuing the aetherogenic diet. There was no difference in feed consumption over the whole experiment. The day before the last administration, all animals were dosed orally in the evening and deprived of food overnight (14 hours) but allowed free access to water. At day 7 the fasted rats were treated again orally in the morning and after two hours the animals were sacrificed by withdrawing blood from the vena Cava under Isoflurane anesthesia. Blood was collected into tubes containing EDTA as an anticoagulant. […] Assays of plasma cholesterol and HDL-cholesterol (precipitation method) were determined enzymatically on a Hitachi 912 automatic analyzer (Roche Diagnostica, Switzerland). Non-HDL cholesterol was calculated by difference between total cholesterol and HDL cholesterol. […] All data are expressed as means±standard deviation (SD) for animals in each diet group, with n being the number of rats. […]

Row | Compound | Effect on non-HDL cholesterol (VLDL-cholesterol+LDL-cholesterol) as compared to the control group [1] | Effect on plasma HDL-cholesterol as compared to the control group [1] | Effect on plasma total cholesterol as compared to the control group [1] | HDL cholesterol (plasma) [1] [mmol/L] | Total cholesterol (plasma) [1] [mmol/L] | non HDL cholesterol (plasma) [1] [mmol/L] | HDL cholesterol (plasma) ([2]; fasted, 2 h after last dose) | Total cholesterol (plasma) ([2]; fasted, 2 h after last dose) | non HDL cholesterol (plasma) ([2]; difference between total and HDL cholesterol)
1 | O=C1[C@H](CC[C@H](O)c2ccc(F)cc2)[C@@H](c2ccc(O)cc2)N1c1ccc(F)cc1 [Ezetimib, reference compound] | prominent effects | prominent effects | prominent effects | 0.51 ± 0.06 | 4.70 ± 0.93 | 4.19 ± 0.90 |  |  | 
2 | N=C(N)NCCC[C@H](N)C(=O)O [L-arginine, reference compound] | had no effect | had no effect | had no effect | 0.33 ± 0.05 | 7.66 ± 1.08 | 7.32 ± 1.08 |  |  | 
3 | K-P-P [KPP] | tended to lowered | significantly increased | tended to lowered | 0.37 ± 0.04 | 6.82 ± 1.42 | 6.45 ± 1.44 |  |  | 
4 | R-P-P-R (RPPR) [chemically synthesized peptide Arg-Pro-Pro-Arg] | significantly lowered | tended to increase | significantly lowered | 0.35 ± 0.04 | 5.28 ± 0.81 | 4.94 ± 0.81 |  |  | 
5 | R-P-P-R-S (RPPRS) [chemically synthesized peptide Arg-Pro-Pro-Arg-Ser] |  |  |  |  |  |  | 0.36 ± 0.10^b mmol/L | 2.9 ± 0.4^b mmol/L | 2.5 ± 0.5^b mmol/L
